Experimental data taken from patent US4133876A, “Antibiotic A-32887 and process for production thereof” (Eli Lilly and Company, priority 1977, dated 1979).

Experiments:
E. tenella and E. maxima = assay: Anticoccidial activity in chicks (Table XI); type: in vivo; parameters: Average Lesion Score, Total Intestinal / Average Lesion Score, Cecal: scale not given here; conditions: for Mortality: due to coccidiosis; for Feed/Gain: pens without deaths only; for Average Weight Gain: per survivor
Experimental: ^1 70,000 oocysts/bird of each of E. tenella and E. maxima
^2 Infected 48 hours postmedication; terminated seven days
^3 Four replicates; five birds/replicate
^6 Pens without deaths only

ATPase = ATPase inhibition in vitro using NaCl; type: biochemical
Excerpt: In yet another aspect, the A-32887 compounds are active as inhibitors of the enzyme ATPase. ATPase, an alkali-metal-sensitive enzyme found in cell membranes, is involved in the energy necessary for active transport. "Active transport" refers to the energy-requiring series of operations whereby intracellular and extracellular fluids maintain their compositions. Inhibitors of ATPase reduce the energy required for active transport.

Streptococcus sp. = assay: Standard agar-dilution assay, MIC (Table VI); type: cell-based
Excerpt: (§1) Antibiotic A-32887 inhibits the growth of pathogenic bacteria, especially gram-positive bacteria. Table VI summarizes the minimal inhibitory concentrations (MIC), as measured by standard agar-dilution assays, at which A-32887 (Na-K salt) inhibits certain bacteria.

[1] = test system: Staphylococcus aureus 3055; assay: Standard agar-dilution assay, MIC (Table VI); type: cell-based
Excerpt: as §1

Streptococcus faecalis = assay: Standard agar-dilution assay, MIC (Table VI); type: cell-based
Excerpt: as §1

Staphylococcus sp. = assay: Standard agar-dilution assay, MIC (Table VI); type: cell-based
Excerpt: as §1

[2] = test system: Pasteurella multocida (bovine); assay: Standard agar-dilution assay, MIC (Table VI); type: cell-based
Excerpt: as §1

[3] = test system: E. tenella and E. acervulina; assay: Anticoccidial activity in chicks (Table XII); type: in vivo; parameters: Average Lesion Score, Intestinal / Average Lesion Score, Cecal: scale not given here; conditions: for Oocysts Per Bird: days 7-9; for Percent Mortality: due to coccidiosis; for Percent Weight Gain: normal controls = 100%
Experimental: ^1 6 replicates; 5 birds each
^2 Infection inoculum 48 hours post-medication onset
^4 Normal controls = 100%

acute swine dysentery = assay: Swine dysentery test in pigs (Table XVII); type: in vivo
Experimental: In another aspect the A-32887 compounds are useful in the prevention and control of swine dysentery. A preferred method of administration to swine is by incorporation of an appropriate amount of an A-32887 compound into the feed ration. […] In this test, groups of four pigs were challenged orally with 5.0 ml of a colon-content/tissue suspension prepared from pigs suffering from acute swine dysentery. Treated pigs were challenged 24 hours after initiating feed treatment. The test was carried out over a period of 26 days, observing pigs daily, and weighing them weekly and on day 26.
*Fecal material for each group was rated daily with 0=normal, 1=slight
blood or mucus, 2=moderate blood or mucus, 3=marked blood or mucus. Index
is the total score per treatment for 25 days.

[4] = test system: E. tenella, E. maxima and E. acervulina; assay: Anticoccidial activity in chicks (Table XIII); type: in vivo; parameters: Average Lesion Score, Intestinal / Average Lesion Score, Cecal: scale not given here; conditions: for Percent Mortality: due to coccidiosis; for Percent Weight Gain: per survivor; for Oocysts/Bird: total days 5, 6 and 7 post-inoculation; for Feed/Gain: pens without deaths only
Excerpt: ^2 Six replicates; 5 birds/each
^5 Pens without deaths, only
^6 Total days 5, 6 and 7 post-inoculation

[5] = Ruminal VFA in fistulated feed-lot cattle (Table XV); type: in vivo; conditions: 30 g/ton, 24-day treatment
Excerpt: The procedure used in testing cattle in this manner is also described in Raun's U.S. Pat. No. 3,839,557 (see Example 9). Table XV summarizes the results of such a test with A-32887 (Na-K salt) wherein five feed-lot cattle weighing approximately 425 kg. were in each group and the mean percent increases in ruminal propionate concentration were averaged over four analyses in a 24-day treatment period.

rumen flora = assay: Volatile-fatty-acid (VFA) production in treated vs control flasks (Table XIV)
powdery mildew = assay: Powdery mildew disease in bean plants, spray; type: in vivo; conditions: 400 ppm spray
Excerpt: The A-32887 compounds are also useful in the treatment of certain plant diseases.

coccidia = assay: Feeding experiments in young chickens challenged with coccidia; type: in vivo, Eimeria species; conditions: feed levels as low as 40 ppm
[6] = Ruminal propionate in sheep (Table XVI); type: in vivo; conditions: 15 g/ton, 19-day treatment, control 26.5
Excerpt: Table XVI summarizes the results of a similar test in sheep with A-32887 (Na-K salt) wherein four sheep were in each group and the mean percent increases in ruminal propionate concentration were averaged over four analyses in a 19-day treatment period.

## CO[C@H]1CC[C@H](OC2[C@@H](C)[C@@](C)(O)O[C@H]([C@H]3CC[C@H]([C@@H]4CC[C@H]([C@@]5(C)O[C@]6(O[C@H](C[C@@H]7O[C@](O)([C@@H](O)C(=O)O)[C@@H](C)[C@H](OC)[C@@]7(C)OC)C[C@@H](OC)[C@H]6C)[C@H](C)[C@H]5OC)O4)O3)[C@H]2C)O[C@@H]1C.[K+].[Na+] (some centres unmarked) [A-32887 (Na-K salt)]
E. tenella and E. maxima; 40 ppm
  Average Lesion Score, Cecal: 1.6
  Average Lesion Score, Total Intestinal: 4.9
  Feed/Gain: 1.89
  Average Weight Gain: 176 g
E. tenella and E. maxima; 40 ppm in feed
  Mortality: 0
E. tenella and E. maxima; 60 ppm
  Average Lesion Score, Cecal: 0.6
  Average Lesion Score, Total Intestinal: 5.9
  Feed/Gain: 1.83
  Average Weight Gain: 155 g
E. tenella and E. maxima; 60 ppm in feed
  Mortality: 0
E. tenella and E. maxima; 80 ppm
  Average Lesion Score, Cecal: 0.3
  Average Lesion Score, Total Intestinal: 3.0
  Feed/Gain: 1.83
  Average Weight Gain: 182 g
E. tenella and E. maxima; 80 ppm in feed
  Mortality: 0
E. tenella and E. maxima; 100 ppm
  Average Lesion Score, Cecal: 0
  Average Lesion Score, Total Intestinal: 1.6
  Feed/Gain: 1.87
  Average Weight Gain: 159 g
E. tenella and E. maxima; 100 ppm in feed
  Mortality: 0
ATPase
  ATPase inhibition: inhibit ATPase
Streptococcus sp.
  MIC: 3.12 µg/mL
[1]
  MIC: 6.25 µg/mL
Streptococcus faecalis
  MIC: 6.25 µg/mL
Staphylococcus sp.
  MIC: 1.56 µg/mL
[2]
  MIC: 50.00 µg/mL
[3]; 62 ppm
  Average Lesion Score, Cecal: 0.1
  Average Lesion Score, Intestinal: 0.9
  Oocysts Per Bird: 16.40 1×10^6
  Percent Mortality: 0%
  Percent Weight Gain: 97%
[3]; 77 ppm
  Average Lesion Score, Cecal: 0
  Average Lesion Score, Intestinal: 0.7
  Oocysts Per Bird: 5.48 1×10^6
  Percent Mortality: 0%
  Percent Weight Gain: 90%
[3]; 100 ppm
  Average Lesion Score, Cecal: 0.1
  Average Lesion Score, Intestinal: 0.6
  Oocysts Per Bird: 1.28 1×10^6
  Percent Mortality: 0%
  Percent Weight Gain: 85%
[3]; 121 ppm
  Average Lesion Score, Cecal: 0
  Average Lesion Score, Intestinal: 0.3
  Oocysts Per Bird: 0.4 1×10^6
  Percent Mortality: 0%
  Percent Weight Gain: 73%
Acute swine dysentery; 100 g/ton in feed, 26 days
  Final-Average Wt. per Pig: 30.3 lbs
  No. Died per No. in Group: 0/4
  No. with Colon Lesions/No. in Group: 2/4
Acute swine dysentery; 100 g/ton, total score per treatment for 25 days (0=normal to 3=marked blood or mucus)
  Diarrhea Index: 22
[4]; 25 ppm
  Average Lesion Score, Cecal: 3.9
  Average Lesion Score, Intestinal: 1.1
  Percent Mortality: 35%
  Percent Weight Gain: 57%
  Oocysts/Bird: 64.83 1×10^6
[4]; 50 ppm
  Average Lesion Score, Cecal: 3.8
  Average Lesion Score, Intestinal: 1.8
  Percent Mortality: 0%
  Feed/Gain: 1.67
  Percent Weight Gain: 79%
  Oocysts/Bird: 35.78 1×10^6
[4]; 75 ppm
  Average Lesion Score, Cecal: 2.0
  Average Lesion Score, Intestinal: 0.9
  Percent Mortality: 0%
  Feed/Gain: 1.49
  Percent Weight Gain: 90%
  Oocysts/Bird: 24.35 1×10^6
[4]; 100 ppm
  Average Lesion Score, Cecal: 0.1
  Average Lesion Score, Intestinal: 0
  Percent Mortality: 0%
  Feed/Gain: 1.50
  Percent Weight Gain: 93%
  Oocysts/Bird: 6.49 1×10^6
[5]; control 8.1
  Molar % Butyrate: 9.6 Molar %
[5]; control 17.4, * P<0.01
  Molar % Propionate: 27.1 Molar %
[5]; control 74.5, * P<0.01
  Molar % Acetate: 63.3 Molar %
[5]; control 79.9
  Total VFA: 79.6 mM/1.
Rumen flora; 1 mcg/ml
  Ratio of Treated to Control, Total VFA mM/1.: 0.7498
Rumen flora; 10 mcg/ml
  Ratio of Treated to Control, Molar % Acetate: 0.8857
  Ratio of Treated to Control, Molar % Butyrate: 0.7012
  Ratio of Treated to Control, Total VFA mM/1.: 1.0086
Rumen flora; 10 mcg/ml, * P<0.01
  Ratio of Treated to Control, Molar % Propionate: 1.2919
Powdery mildew
  inhibition of powdery mildew disease: inhibits powdery mildew disease
coccidia
  Mortality: decreases
  number of lesions: decreases
[6]
  Molar % Propionate: 29.5 Molar %
